Experimental findings from patent publication US7294635B2 (Portola Pharmaceuticals, Inc., priority 2003, dated 2007) are described below.

The test system of the assay is ADP-induced human platelet aggregation. The assay can be described thus: Inhibition of ADP-mediated platelet aggregation in vitro using platelet-rich plasma (PRP assay). It counts as cell-based. Particulars: 5 min; human platelet-rich plasma, 2 μM ADP, 96-well microtiter, OD 650 nm at 5 min; read-out: Activity in the PRP assay. As to the method: This Example Provides an Assay for the Inhibition of ADP-Mediated Platelet Aggregation In Vitro Using Platelet-Rich Plasma (PRP)
Platelet-rich plasma (PRP) is prepared by centrifugation at 160×g for 20 minutes at room temperature. PRP is collected, and the platelet concentration is determined using a Coulter counter or hemocytometer (platelet concentration should be 2-4×10^8 platelets per mL).
Inhibition of ADP-dependent aggregation is preferably determined in 96-well flat-bottom microtiter plates using a microtiter plate shaker and plate reader similar to the procedure described by Frantantoni et al., Am. J. Clin. Pathol. […] All steps are performed at room temperature. The total reaction volume of 0.2 mL/well includes: PRP (˜6×10^7 total platelets in the presence of plasma), serial dilutions of test compounds (buffer for control wells) in 0.6% DMSO. After about 5 minutes preincubation at room temperature, ADP is added to a final concentration of 2 μM which induces submaximal aggregation. Buffer is added instead of ADP to one set of control wells (ADP-control). The OD of the samples is then determined at 650 nm using a microtiter plate reader (Softmax, Molecular Devices, Menlo Park, Calif.) resulting in the 0 minute reading. The plates are then agitated for 5 min on a microtiter plate shaker and the 5 minute reading is obtained in the plate reader. Aggregation is calculated from the decrease of OD at 650 nm at t=5 minutes compared to t=0 minutes and is expressed as % of the decrease in the ADP control samples after correcting for changes in the unaggregated control samples.

A value given as a limit tells only on which side of the number the result lay.

On to `CN(C)c1cc2ccn(-c3ccc(NC(=O)NS(=O)(=O)c4ccc(Cl)s4)cc3)c(=O)c2cc1F` [Example 26, 5-chloro-N-[({4-[6-(dimethylamino)-7-fluoro-1-oxoisoquinolin-2(1H)-yl]phenyl}amino)carbonyl]thiophene-2-sulfonamide], for which the IC50 was more than 30 µM.
To `CNc1cc2ccn(-c3ccc(NC(=O)NS(=O)(=O)c4sccc4Cl)cc3)c(=O)c2cc1F` [Example 40] belongs more than 30 µM; to `CCOc1cc(-n2ccc3cc(NC)c(F)cc3c2=O)ccc1NC(=O)NS(=O)(=O)c1ccc(Cl)s1` [Example 90, 5-chloro-N-[({2-ethoxy-4-[7-fluoro-6-(methylamino)-1-oxoisoquinolin-2(1H)-yl]phenyl}amino)carbonyl]thiophene-2-sulfonamide], less than 10 µM; to `CNc1cc2ccn(-c3ccc(NC(=O)NS(=O)(=O)c4ccc(Cl)s4)cc3C(C)=O)c(=O)c2cc1F` [Example 70, N-[({3-acetyl-4-[7-fluoro-6-(methylamino)-1-oxoisoquinolin-2(1H)-yl]phenyl}amino)carbonyl]-5-chlorothiophene-2-sulfonamide], 10 to 30 µM.
In the case of `CNc1cc2ccn(-c3ccc(NC(=O)NS(=O)(=O)c4ccc(Cl)s4)c(OCc4ccccc4)c3)c(=O)c2cc1F` [Example 79, N-[({2-(benzyloxy)-4-[7-fluoro-6-(methylamino)-1-oxoisoquinolin-2(1H)-yl]phenyl}amino)carbonyl]-5-chlorothiophene-2-sulfonamide] it was more than 30 µM; in that of `CNc1cc2ccn(-c3ccc(NC(=O)NS(=O)(=O)c4ccc(Cl)s4)cc3Cl)c(=O)c2cc1F` [Example 50, 5-chloro-N-[({3-chloro-4-[7-fluoro-6-(methylamino)-1-oxoisoquinolin-2(1H)-yl]phenyl}amino)carbonyl]thiophene-2-sulfonamide], less than 10 µM.
As to `CNc1cc2ccn(-c3ccc(NC(=O)NS(=O)(=O)c4ccc(C)s4)cc3)c(=O)c2cc1F` [Example 29], the IC50 is less than 10 µM.
In the case of `CNc1cc2ccn(-c3ccc(NC(=O)NS(=O)(=O)c4ccc(Cl)s4)c(OCOC)c3)c(=O)c2cc1F` [Example 76, 5-chloro-N-({[4-[7-fluoro-6-(methylamino)-1-oxoisoquinolin-2(1H)-yl]-2-(methoxymethoxy)phenyl]amino}carbonyl)thiophene-2-sulfonamide] it was less than 10 µM.
To `CNc1cc2ccn(-c3ccc(NC(=O)NS(=O)(=O)c4ccc(Cl)s4)cc3)c(=O)c2cc1F` [Example 10, 5-chloro-N-[({4-[7-fluoro-6-(methylamino)-1-oxoisoquinolin-2(1H)-yl]phenyl}amino)carbonyl]thiophene-2-sulfonamide] belongs less than 10 µM; to `CNc1cc2ccn(-c3ccc(NC(=O)NS(=O)(=O)c4ccc(C#N)s4)cc3)c(=O)c2cc1F` [Example 33], 10 to 30 µM.
To `CNc1cc2ccn(-c3ccc(NC(=O)NS(=O)(=O)c4ccc(Cl)s4)cc3CO)c(=O)c2cc1F` [Example 63, 5-chloro-N-({[4-[7-fluoro-6-(methylamino)-1-oxoisoquinolin-2(1H)-yl]-3-(hydroxymethyl)phenyl]amino}carbonyl)thiophene-2-sulfonamide] belongs less than 10 µM; to `CNc1cc2ccn(-c3ccc(NC(=O)NS(=O)(=O)c4ccc(Cl)s4)c(C(F)(F)F)c3)c(=O)c2cc1F` [Example 97, 5-chloro-N-({[4-[7-fluoro-6-(methylamino)-1-oxoisoquinolin-2(1H)-yl]-2-(trifluoromethyl)phenyl]amino}carbonyl)thiophene-2-sulfonamide], less than 10 µM; to `CNc1cc2ccn(-c3ccc(NC(=O)NS(=O)(=O)c4ccc(Cl)s4)c(C)c3)c(=O)c2cc1F` [Example 53, 5-chloro-N-[({4-[7-fluoro-6-(methylamino)-1-oxoisoquinolin-2(1H)-yl]-2-methylphenyl}amino)carbonyl]thiophene-2-sulfonamide], less than 10 µM.
As for `CNc1cc2ccn(-c3ccc(NC(=O)NS(=O)(=O)c4ccc(Cl)s4)c(C)n3)c(=O)c2cc1F` [Example 55, 5-chloro-N-[({6-[7-fluoro-6-(methylamino)-1-oxoisoquinolin-2(1H)-yl]-2-methylpyridin-3-yl}amino)carbonyl]thiophene-2-sulfonamide], the IC50 was less than 10 µM.
In the case of `CNc1cc2ccn(-c3ccc(NC(=O)NS(=O)(=O)c4ccc(Cl)s4)cc3C(N)=O)c(=O)c2cc1F` [Example 68, 5-[({[(5-chlorothien-2-yl)sulfonyl]amino}carbonyl)amino]-2-[7-fluoro-6-(methylamino)-1-oxoisoquinolin-2(1H)-yl]benzamide] it was 10 to 30 µM; in that of `CNc1cc2ccn(-c3ccc(NC(=O)NS(=O)(=O)c4ccc(Cl)s4)c(C4CC4)c3)c(=O)c2cc1F` [Example 94, 5-chloro-N-[({2-cyclopropyl-4-[7-fluoro-6-(methylamino)-1-oxoisoquinolin-2(1H)-yl]phenyl}amino)carbonyl]thiophene-2-sulfonamide], less than 10 µM; in that of `CNc1c(F)cc2c(=O)n(-c3ccc(NC(=O)NS(=O)(=O)c4ccc(Cl)s4)cc3)ccc2c1Br` [Example 109, N-[({4-[5-bromo-7-fluoro-6-(methylamino)-1-oxoisoquinolin-2(1H)-yl]phenyl}amino)carbonyl]-5-chlorothiophene-2-sulfonamide], more than 30 µM.
In the case of `CNc1cc2ccn(-c3ccc(NC(=O)NS(=O)(=O)c4ccc(Cl)s4)cc3C(F)(F)F)c(=O)c2cc1F` [Example 95, 5-chloro-N-({[4-[7-fluoro-6-(methylamino)-1-oxoisoquinolin-2(1H)-yl]-3-(trifluoromethyl)phenyl]amino}carbonyl)thiophene-2-sulfonamide] it was more than 30 µM.
